Patent publication US10947242B2, “[1,2,4]triazolo[1,5and#8208;A]pyrimidine compounds as PDE2 inhibitors” (Janssen Pharmaceutica NV, priority 2016, dated 2021)
Where two headings read alike, the source gives them in different places.

Legend:
[1] = target: T1, Human recombinant PDE2A (hPDE2A) (Homo sapiens, UniProt O00408); assay: In vitro assay PDE2A (SPA, 3H-cGMP hydrolysis); type: biochemical; conditions: for Emax: read-out: hPDE2A Emax
T1 construct: His tag (inferred from metal chelate purification); made in house; host or cells: Sf9 insect cells (baculovirus)
T1 sequence (O00408 whole entry): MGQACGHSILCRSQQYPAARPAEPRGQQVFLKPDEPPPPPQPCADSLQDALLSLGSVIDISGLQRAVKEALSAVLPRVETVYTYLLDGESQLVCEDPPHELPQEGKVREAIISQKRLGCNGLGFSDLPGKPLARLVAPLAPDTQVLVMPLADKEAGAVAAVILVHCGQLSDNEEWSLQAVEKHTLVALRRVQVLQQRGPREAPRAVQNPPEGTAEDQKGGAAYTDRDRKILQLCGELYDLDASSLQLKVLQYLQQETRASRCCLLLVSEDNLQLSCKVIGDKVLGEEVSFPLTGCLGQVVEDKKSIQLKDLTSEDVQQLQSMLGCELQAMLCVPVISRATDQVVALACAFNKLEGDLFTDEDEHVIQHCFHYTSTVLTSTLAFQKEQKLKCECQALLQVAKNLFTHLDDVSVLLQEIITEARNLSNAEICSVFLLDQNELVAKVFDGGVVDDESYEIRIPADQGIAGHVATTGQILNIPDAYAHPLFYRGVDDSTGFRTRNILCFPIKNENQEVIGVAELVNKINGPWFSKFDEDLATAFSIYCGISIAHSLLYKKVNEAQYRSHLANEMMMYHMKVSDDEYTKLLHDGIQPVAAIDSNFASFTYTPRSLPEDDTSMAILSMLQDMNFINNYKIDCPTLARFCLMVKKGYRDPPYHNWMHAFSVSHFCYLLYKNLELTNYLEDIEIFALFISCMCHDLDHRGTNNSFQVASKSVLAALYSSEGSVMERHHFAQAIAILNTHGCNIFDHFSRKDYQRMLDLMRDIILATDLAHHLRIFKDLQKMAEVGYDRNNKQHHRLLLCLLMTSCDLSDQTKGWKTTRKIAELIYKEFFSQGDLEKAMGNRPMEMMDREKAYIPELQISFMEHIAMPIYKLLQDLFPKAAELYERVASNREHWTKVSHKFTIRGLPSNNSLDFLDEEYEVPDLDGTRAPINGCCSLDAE

[2] = target: T2, Human recombinant PDE3A (hPDE3A) (Homo sapiens, UniProt Q14432); assay: In vitro assay PDE3A (SPA, 3H-cAMP hydrolysis); type: biochemical; conditions: for IC50: hPDE3B pIC50; for Emax: read-out: hPDE3B Emax, read-out: Emax;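 on Emax: the method names PDE3A and the table heading PDE3B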
T2 construct: purchased Scottish Biomedical; host or cells: Sf9 insect cells
T2 sequence (Q14432 whole entry): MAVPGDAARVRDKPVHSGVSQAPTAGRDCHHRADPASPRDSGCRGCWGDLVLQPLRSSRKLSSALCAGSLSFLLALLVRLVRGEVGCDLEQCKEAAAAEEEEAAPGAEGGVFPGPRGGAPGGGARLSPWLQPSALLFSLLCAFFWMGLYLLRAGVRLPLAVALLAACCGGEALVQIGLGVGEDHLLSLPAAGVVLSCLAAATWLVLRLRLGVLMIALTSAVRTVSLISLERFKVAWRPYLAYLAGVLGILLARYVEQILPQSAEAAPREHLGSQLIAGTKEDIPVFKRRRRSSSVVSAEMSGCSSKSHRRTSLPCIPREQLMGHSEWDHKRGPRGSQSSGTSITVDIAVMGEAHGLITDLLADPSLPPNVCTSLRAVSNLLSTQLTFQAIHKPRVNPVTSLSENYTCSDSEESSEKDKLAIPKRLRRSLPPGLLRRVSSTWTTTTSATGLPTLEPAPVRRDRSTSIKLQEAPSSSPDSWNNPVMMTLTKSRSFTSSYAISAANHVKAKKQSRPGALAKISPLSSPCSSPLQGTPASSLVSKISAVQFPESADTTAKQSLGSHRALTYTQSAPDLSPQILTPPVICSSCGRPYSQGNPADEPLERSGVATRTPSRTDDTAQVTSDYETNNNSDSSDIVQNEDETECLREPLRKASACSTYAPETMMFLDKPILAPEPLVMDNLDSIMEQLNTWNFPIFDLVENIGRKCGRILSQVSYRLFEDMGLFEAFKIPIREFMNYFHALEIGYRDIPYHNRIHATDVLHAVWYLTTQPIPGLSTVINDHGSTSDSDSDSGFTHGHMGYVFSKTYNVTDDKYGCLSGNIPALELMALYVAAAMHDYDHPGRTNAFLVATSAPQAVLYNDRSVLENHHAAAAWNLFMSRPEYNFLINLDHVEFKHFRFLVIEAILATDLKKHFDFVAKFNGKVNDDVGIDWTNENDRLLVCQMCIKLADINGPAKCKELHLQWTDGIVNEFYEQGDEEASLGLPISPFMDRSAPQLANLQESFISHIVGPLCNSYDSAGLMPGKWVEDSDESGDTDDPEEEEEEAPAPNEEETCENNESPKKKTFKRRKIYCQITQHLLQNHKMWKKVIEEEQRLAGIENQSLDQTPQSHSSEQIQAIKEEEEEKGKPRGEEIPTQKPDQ
Method in brief: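 Human PDE3A, cloned from brain, as partially purified Sf9 lysate. Substrate 0.4 μM cAMP plus [3H]-cAMP (2.4 μCi/ml final) in 50 mM Tris pH 7.8, 8.3 mM MgCl2, 1.7 mM EGTA, 60 min at room temperature, 1% DMSO final. Hydrolysis read by SPA scintillation counting against no-enzyme blanks and DMSO controls.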

[3] = target: T3, Human recombinant PDE10A (hPDE10A) (Homo sapiens, UniProt Q9Y233); assay: In vitro assay PDE10A, human clone (SPA, 3H-cAMP hydrolysis); type: biochemical
T3 construct: His tag (inferred from metal chelate purification); made in house; host or cells: Sf9 insect cells (baculovirus)
T3 sequence (Q9Y233 267-1055): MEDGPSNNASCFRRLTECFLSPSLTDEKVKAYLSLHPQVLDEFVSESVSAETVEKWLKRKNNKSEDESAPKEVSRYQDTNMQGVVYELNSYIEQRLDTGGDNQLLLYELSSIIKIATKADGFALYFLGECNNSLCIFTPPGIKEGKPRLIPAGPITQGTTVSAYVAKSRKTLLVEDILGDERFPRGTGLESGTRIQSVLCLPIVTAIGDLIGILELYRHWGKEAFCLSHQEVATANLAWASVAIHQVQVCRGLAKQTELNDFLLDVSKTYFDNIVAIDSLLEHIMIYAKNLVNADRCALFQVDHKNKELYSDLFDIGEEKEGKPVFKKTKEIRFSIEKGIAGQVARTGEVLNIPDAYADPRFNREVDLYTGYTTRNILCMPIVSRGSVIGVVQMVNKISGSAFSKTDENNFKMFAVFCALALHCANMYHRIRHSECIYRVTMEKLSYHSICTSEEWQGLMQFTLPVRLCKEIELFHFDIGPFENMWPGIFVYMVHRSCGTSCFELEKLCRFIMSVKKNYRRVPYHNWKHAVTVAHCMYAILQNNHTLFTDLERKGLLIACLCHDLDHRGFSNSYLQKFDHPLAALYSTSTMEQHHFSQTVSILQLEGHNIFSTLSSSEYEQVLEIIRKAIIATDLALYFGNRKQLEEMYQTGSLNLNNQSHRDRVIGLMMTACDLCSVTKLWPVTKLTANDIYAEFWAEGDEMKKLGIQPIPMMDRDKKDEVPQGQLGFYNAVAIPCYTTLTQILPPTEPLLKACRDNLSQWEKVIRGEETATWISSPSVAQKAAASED
Method in brief: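 Human recombinant PDE10A was expressed in Sf9 cells via baculovirus and incubated with compound in 50 mM Tris pH 7.8, 8.3 mM MgCl2, 1.7 mM EGTA. Substrate was 60 nM cAMP plus 0.008 μCi 3H-cAMP for 60 min at room temperature, read by SPA scintillation counting. Controls used 1% DMSO, and blanks omitted enzyme.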

PDE2A = target: T4, PDE2A (Rattus norvegicus, UniProt Q01062); assay: PDE2 occupancy by test compounds, ex-vivo autoradiography with [3H]B-17a; type: in vivo, Male Wistar rats; conditions: 10 mg/kg, percentage receptor occupancy, ex-vivo autoradiography, striatum
T4 construct: Twenty μm-thick striatal sections were cut; from tissue; host or cells: rat brain, striatal sections
T4 sequence (Q01062 1-928): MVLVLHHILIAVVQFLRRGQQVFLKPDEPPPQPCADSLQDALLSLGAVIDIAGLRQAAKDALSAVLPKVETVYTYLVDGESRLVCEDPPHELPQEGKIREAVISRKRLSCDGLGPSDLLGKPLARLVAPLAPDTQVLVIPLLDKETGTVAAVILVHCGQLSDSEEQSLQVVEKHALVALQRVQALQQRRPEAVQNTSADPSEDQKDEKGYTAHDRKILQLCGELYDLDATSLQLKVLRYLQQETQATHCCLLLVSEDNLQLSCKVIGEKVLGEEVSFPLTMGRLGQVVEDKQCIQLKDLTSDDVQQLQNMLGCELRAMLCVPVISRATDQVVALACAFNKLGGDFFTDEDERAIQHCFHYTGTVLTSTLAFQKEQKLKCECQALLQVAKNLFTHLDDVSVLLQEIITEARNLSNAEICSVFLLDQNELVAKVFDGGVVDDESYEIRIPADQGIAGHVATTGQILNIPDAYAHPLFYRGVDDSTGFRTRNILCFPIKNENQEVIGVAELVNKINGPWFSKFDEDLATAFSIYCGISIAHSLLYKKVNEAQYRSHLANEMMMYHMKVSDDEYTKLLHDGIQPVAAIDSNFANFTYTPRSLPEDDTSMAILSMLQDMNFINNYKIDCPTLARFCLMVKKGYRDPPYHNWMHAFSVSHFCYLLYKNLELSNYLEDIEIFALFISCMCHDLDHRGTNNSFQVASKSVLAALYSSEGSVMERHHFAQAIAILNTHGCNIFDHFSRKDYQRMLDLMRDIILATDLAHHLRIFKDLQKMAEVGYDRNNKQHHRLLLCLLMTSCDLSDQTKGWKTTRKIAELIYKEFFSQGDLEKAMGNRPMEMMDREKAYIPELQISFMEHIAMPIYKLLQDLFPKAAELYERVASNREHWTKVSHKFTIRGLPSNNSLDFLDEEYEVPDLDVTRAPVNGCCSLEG

[4] = human recombinant PDE2A, 10 μM cGMP substrate, read-out: hPDE2A pIC50 (converted)
[5] = read-out: hPDE2A pIC50 (converted)
[6] = human clone (h), default, read-out: hPDE10A2 Emax
[7] = human clone (h), default, read-out: hPDE10A2 pIC50 (converted)
[8] = human clone by default (no (r) mark), read-out: hPDE10A2 or rPDE10A2 Emax
[9] = human clone by default (no (r) mark), read-out: hPDE10A2 or rPDE10A2 pIC50 (converted)

COc1cc(C(=O)N2CC[C@@H](C)[C@H](c3cc(C(F)F)nc4ncnn34)C2)ccc1C1CC1 [Compound 118]
IC50 [1, 4]: 1.66 nM
Emax ([1]; human recombinant PDE2A): 101%
Emax [1]: 101%
IC50 [1, 5]: 1.66 nM
IC50 ([2]; read-out: pIC50 (converted)): 955 nM
Emax [2]: 92%
Emax [3, 6]: 99%
IC50 [3, 7]: 74.1 nM
melting point: 179.82 °C

C[C@@H]1CCN(C(=O)c2ccc3ncccc3c2)C[C@H]1c1cc(C(F)F)nc2ncnn12 [Compound 322]
Emax [1]: 100%
IC50 [1, 5]: 0.501 nM
IC50 ([2]; read-out: pIC50 (converted)): 479 nM
Emax [2]: 95%
Emax [3, 8]: 99%
IC50 [3, 9]: 18.6 nM
melting point: 180.27 °C

C[C@@H]1CCN(C(=O)c2ccc3ccccc3c2)C[C@H]1c1cc(C(F)F)nc2ncnn12 [Compound 331]
Emax [1]: 98%
IC50 [1, 5]: 0.479 nM
IC50 ([2]; read-out: pIC50 (converted)): 50.1 nM
Emax [2]: 99%
Emax [3, 8]: 100%
IC50 [3, 9]: 14.5 nM
melting point: 193.87 °C

C[C@@H]1CCN(C(=O)c2cnc3c(F)cccc3c2)C[C@H]1c1cc(C(F)F)nc2ncnn12 [Compound 325]
Emax [1]: 100%
IC50 [1, 5]: 1.15 nM
IC50 ([2]; read-out: pIC50 (converted)): 309 nM
Emax [2]: 98%
Emax [3, 8]: 98%
IC50 [3, 9]: 64.6 nM
melting point: 226.36 °C

Cn1ccc2c(F)c(C(=O)N3[C@H]4CC[C@H](c5cc(C(F)F)nc6ncnn56)[C@@H]3CC4)ccc21
melting point: 220.89 °C

Cc1cc(C(=O)N2[C@H]3CC[C@H](c4cc(C(F)F)nc5ncnn45)[C@@H]2CC3)ccc1Cl [Compound 375]
Emax [1]: 101%
IC50 [1, 5]: 3.55 nM
IC50 ([2]; read-out: pIC50 (converted)): 4470 nM
Emax [2]: 73%
Emax [3, 8]: 94%
IC50 [3, 9]: 813 nM
melting point: 171.51 °C

Cc1nn(C)cc1C(=O)N1CCC[C@](C)(c2cc(C(F)F)nc3ncnn23)C1 (single isomer, unassigned) [Compound 207]
IC50 [1, 4]: 7940 nM
Emax ([1]; human recombinant PDE2A): 21%
Emax [1]: 21%
IC50 [1, 5]: 7940 nM
IC50 ([2]; read-out: pIC50 (converted)): > 10000 nM
Emax [2]: 2%
Emax [3, 6]: -5%
IC50 [3, 7]: > 10000 nM
melting point: 173.79 °C

O=C(c1ccc(F)c(Cl)c1)N1[C@H]2CC[C@H](c3cc(C(F)F)nc4ncnn34)[C@@H]1CC2 [Compound 377]
Emax [1]: 99%
IC50 [1, 5]: 17.8 nM
IC50 ([2]; read-out: pIC50 (converted)): 9770 nM
Emax [2]: 47%
Emax [3, 8]: 89%
IC50 [3, 9]: 1290 nM
melting point: 183.67 °C

Cc1cc(C)cc(C(=O)N2CCC[C@](C)(c3cc(C(F)F)nc4ncnn34)C2)c1 (single isomer, unassigned) [Compound 206]
IC50 [1, 4]: 1660 nM
Emax ([1]; human recombinant PDE2A): 39%
Emax [1]: 39%
IC50 [1, 5]: 1660 nM
IC50 ([2]; read-out: pIC50 (converted)): > 10000 nM
Emax [2]: -1%
Emax [3, 6]: 16%
IC50 [3, 7]: > 10000 nM
melting point: 145.73 °C

C[C@H]1CCN(C(=O)c2ccc3occc3c2)C[C@@H]1c1cc(C(F)F)nc2ncnn12 [Compound 221]
melting point: 122.37 °C

Cc1cc(C(=O)N2CC[C@@H](C)[C@H](c3cc(C(F)F)nc4ncnn34)C2)cc(OC(C)C)n1 [Compound 107]
IC50 [1, 4]: 0.912 nM
Emax ([1]; human recombinant PDE2A): 100%
Emax [1]: 100%
IC50 [1, 5]: 0.912 nM
IC50 ([2]; read-out: pIC50 (converted)): 4170 nM
Emax [2]: 61%
Emax [3, 6]: 99%
IC50 [3, 7]: 81.3 nM
receptor occupancy at 10 mg/kg (PDE2A; po, route PO (oral)): 29%

COc1ccc(C(=O)N2[C@H]3CC[C@H](c4cc(C(F)F)nc5ncnn45)[C@@H]2CC3)cc1OC [Compound 364]
Emax [1]: 101%
IC50 [1, 5]: 3.89 nM
IC50 ([2]; read-out: pIC50 (converted)): 3160 nM
Emax [2]: 75%
Emax [3, 8]: 85%
IC50 [3, 9]: 1820 nM
receptor occupancy at 10 mg/kg (PDE2A; route PO (oral)): -5%

Cc1cc2ccc(C(=O)N3[C@H]4CC[C@H](c5cc(C(F)F)nc6ncnn56)[C@@H]3CC4)cn2c1 [Compound 307]
IC50 ([1]; hPDE2A pIC50): 9.12 nM
Emax [1]: 99%
IC50 [2]: 1480 nM
Emax [2]: 88%
IC50 ([3]; hPDE10A2 or rPDE10A2 pIC50, human clone by default (no (r) mark)): 603 nM
Emax [3, 8]: 97%
receptor occupancy at 10 mg/kg (PDE2A; route PO (oral)): 8%

Cc1c(C(=O)N2CC[C@@H](C)[C@H](c3cc(C(F)F)nc4ncnn34)C2)oc2ccccc12 [Compound 48]
IC50 [1, 4]: 0.174 nM
Emax ([1]; human recombinant PDE2A): 100%
Emax [1]: 100%
IC50 [1, 5]: 0.174 nM
IC50 ([2]; read-out: pIC50 (converted)): 87.1 nM
Emax [2]: 99%
Emax [3, 6]: 100%
IC50 [3, 7]: 43.7 nM
receptor occupancy at 10 mg/kg (PDE2A; sc, route SC (subcutaneous)): 96%

Cc1cc([C@@H]2CN(C(=O)c3ccc4ncsc4c3)CC[C@H]2C)n2ncnc2n1 [Compound 2a]
IC50 ([1]; hPDE2A pIC50): 0.589 nM
IC50 ([1]; hPDE2A pIC50, human recombinant PDE2A, 10 μM cGMP substrate): 0.589 nM
Emax [1]: 101%
IC50 ([2]; read-out: pIC50 (converted)): 776 nM
Emax [2]: 98%
Emax [3, 6]: 101%
IC50 [3, 7]: 7.24 nM
receptor occupancy at 10 mg/kg (PDE2A; sc, route SC (subcutaneous)): 70%

COc1c(C)cc(C(=O)N2[C@H]3CC[C@H](c4cc(C(F)F)nc5ncnn45)[C@@H]2CC3)cc1C [Compound 292]
Emax [1]: 100%
IC50 [1, 5]: 2.51 nM
IC50 ([2]; read-out: pIC50 (converted)): 4680 nM
Emax [2]: 73%
Emax [3, 8]: 94%
IC50 [3, 9]: 724 nM
receptor occupancy at 10 mg/kg (PDE2A; route PO (oral)): 23%

COc1cc(C(=O)N2CC[C@@H](C)[C@H](c3cc(C(F)F)nc4ncnn34)C2)c(F)c(C)n1 [Compound 398]
Emax [1]: 99%
IC50 [1, 5]: 4.9 nM
IC50 ([2]; read-out: pIC50 (converted)): 5250 nM
Emax [2]: 67%
Emax [3, 8]: 95%
IC50 [3, 9]: 589 nM
receptor occupancy at 10 mg/kg (PDE2A; po, route PO (oral)): 29%
